Reference: patent publication US11718892B2, “Biological ore processing for the isolation of heavy metals” (CyPlus GmbH, priority 2015, dated 2023)

Experiments:
Assay in all cases: Growth on agar plates with different concentrations of AgNO3 or HAuCl4 (resistance assay)
Type in all cases: cell-based
Set-up in all cases: key: x = growth; (x) = weak growth
Escherichia coli = test system: Escherichia coli
Source text: (§1) The growth of several microorganisms (e.g. Escherichia coli, Xanthomonas campestris, Cupriavidus metallidurans and Bacillus sphaericus) was monitored in the presence of the lids with coated pins. Escherichia coli and Xanthomonas campestris served as negative controls with regard to metal binding; Cupriavidus metallidurans as positive control. Additionally, Bacillus sphaericus was used as a positive control for silver binding. For Bacillus sphaericus the binding to gold particles and gold coated surfaces was observed earlier by the inventors. Cupriavidus metallidurans is a gram-negative, rod-shaped bacterium which has gold binding capacity as described in the literature (Reith et al., 2006). The species name metallidurans indicates its resistance to heavy metals and its ability to survive in the presence of gold and silver was investigated previously (Reith F, Rogers S L, McPhail D C and Webb D. (2006) “Biomineralization of gold: biofilms on bacterioform gold.” Science 313(5784): 233-236; Reith F, Etschmann B, Grosse C, Moors H, Benotmane M A, Monsieurs P, Grass G, Doonan C, Vogt S, Lai B, Martinez-Criado G, George G N, Nies D H, Mergeay M, Pring A, Southam G and Brugger J. (2009) “Mechanisms of gold biomineralization in the bacterium Cupriavidus metallidurans.” Proc Natl Acad Sci 106(42):17757-17762; Ledrich ML1, Stemmler S, Laval-Gilly P, Foucaud L, and Falla J (2005) “Precipitation of silver-thiosulfate complex and immobilization of silver by Cupriavidus metallidurans CH34.” Biometals 18(6): 643-650).
(§2) To investigate the tolerated concentration of silver and gold, the microorganisms were propagated in liquid medium and streaked on agar plates with different concentrations of AgNO3 or HAuCl4, respectively.

Bacillus sphaericus = test system: Bacillus sphaericus
Source text: as §1, §2

[1] = test system: Cupriavidus metallidurans
Source text: as §1, §2

Xanthomonas campestris = test system: Xanthomonas campestris
Source text: as §1, §2

SMILES: [Au+3].[Cl-].[Cl-].[Cl-].[Cl-].[H+] [HAuCl4]
- Microbial growth dependence on HAuCl4 concentration (Escherichia coli; 2 μM HAuCl4, agar plate): x
- Microbial growth dependence on HAuCl4 concentration (Escherichia coli; 20 μM HAuCl4, agar plate): x
- Microbial growth dependence on HAuCl4 concentration (Escherichia coli; 100 μM HAuCl4, agar plate): x
- Microbial growth dependence on HAuCl4 concentration (Escherichia coli; 200 μM HAuCl4, agar plate): x
- Microbial growth dependence on HAuCl4 concentration (Escherichia coli; 300 μM HAuCl4, agar plate): x
- Microbial growth dependence on HAuCl4 concentration (Bacillus sphaericus; 2 μM HAuCl4, agar plate): x
- Microbial growth dependence on HAuCl4 concentration (Bacillus sphaericus; 20 μM HAuCl4, agar plate): x
- Microbial growth dependence on HAuCl4 concentration (Bacillus sphaericus; 100 μM HAuCl4, agar plate): x
- Microbial growth dependence on HAuCl4 concentration (Bacillus sphaericus; 200 μM HAuCl4, agar plate): x
- Microbial growth dependence on HAuCl4 concentration ([1]; 2 μM HAuCl4, agar plate): x
- Microbial growth dependence on HAuCl4 concentration ([1]; 20 μM HAuCl4, agar plate): x
- Microbial growth dependence on HAuCl4 concentration ([1]; 100 μM HAuCl4, agar plate): x
- Microbial growth dependence on HAuCl4 concentration ([1]; 200 μM HAuCl4, agar plate): x
- Microbial growth dependence on HAuCl4 concentration ([1]; 300 μM HAuCl4, agar plate): x
- Microbial growth dependence on HAuCl4 concentration ([1]; 400 μM HAuCl4, agar plate): x
- Microbial growth dependence on HAuCl4 concentration ([1]; 500 μM HAuCl4, agar plate): x
- Microbial growth dependence on HAuCl4 concentration (Xanthomonas campestris; 2 μM HAuCl4, agar plate): x
- Microbial growth dependence on HAuCl4 concentration (Xanthomonas campestris; 20 μM HAuCl4, agar plate): x
- Microbial growth dependence on HAuCl4 concentration (Xanthomonas campestris; 100 μM HAuCl4, agar plate): x
- Microbial growth dependence on HAuCl4 concentration (Xanthomonas campestris; 200 μM HAuCl4, agar plate): x
- Microbial growth dependence on HAuCl4 concentration (Xanthomonas campestris; 300 μM HAuCl4, agar plate): x

SMILES: O=[N+]([O-])[O-].[Ag+] [AgNO3]
- Microbial growth dependence on AgNO3 concentration (Escherichia coli; 2 μM AgNO3, agar plate): x
- Microbial growth dependence on AgNO3 concentration (Escherichia coli; 10 μM AgNO3, agar plate): x
- Microbial growth dependence on AgNO3 concentration (Escherichia coli; 20 μM AgNO3, agar plate): x
- Microbial growth dependence on AgNO3 concentration (Escherichia coli; 50 μM AgNO3, agar plate): x
- Microbial growth dependence on AgNO3 concentration (Escherichia coli; 100 μM AgNO3, agar plate): x
- Microbial growth dependence on AgNO3 concentration (Bacillus sphaericus; 2 μM AgNO3, agar plate): x
- Microbial growth dependence on AgNO3 concentration (Bacillus sphaericus; 10 μM AgNO3, agar plate): x
- Microbial growth dependence on AgNO3 concentration (Bacillus sphaericus; 20 μM AgNO3, agar plate): x
- Microbial growth dependence on AgNO3 concentration (Bacillus sphaericus; 50 μM AgNO3, agar plate): x
- Microbial growth dependence on AgNO3 concentration (Bacillus sphaericus; 100 μM AgNO3, agar plate): x
- Microbial growth dependence on AgNO3 concentration (Bacillus sphaericus; 150 μM AgNO3, agar plate): x
- Microbial growth dependence on AgNO3 concentration ([1]; 2 μM AgNO3, agar plate): x
- Microbial growth dependence on AgNO3 concentration ([1]; 10 μM AgNO3, agar plate): x
- Microbial growth dependence on AgNO3 concentration ([1]; 20 μM AgNO3, agar plate): x
- Microbial growth dependence on AgNO3 concentration ([1]; 50 μM AgNO3, agar plate): x
- Microbial growth dependence on AgNO3 concentration ([1]; 100 μM AgNO3, agar plate): x
- Microbial growth dependence on AgNO3 concentration ([1]; 150 μM AgNO3, agar plate): x
- Microbial growth dependence on AgNO3 concentration ([1]; 200 μM AgNO3, agar plate): (x)
- Microbial growth dependence on AgNO3 concentration (Xanthomonas campestris; 2 μM AgNO3, agar plate): x
- Microbial growth dependence on AgNO3 concentration (Xanthomonas campestris; 10 μM AgNO3, agar plate): x
- Microbial growth dependence on AgNO3 concentration (Xanthomonas campestris; 20 μM AgNO3, agar plate): x
- Microbial growth dependence on AgNO3 concentration (Xanthomonas campestris; 50 μM AgNO3, agar plate): x
- Microbial growth dependence on AgNO3 concentration (Xanthomonas campestris; 100 μM AgNO3, agar plate): x
